These results are taken from ChEMBL document CHEMBL5131459, “Semisynthesis and neurotrophic activity studies of novel neomajucin/majucin derivatives as neurotrophin small molecule mimetics” (Bioorg Med Chem Lett, 2022).

The structures appear in SMILES notation. Calls of active or inactive are those of the source. The calls are words filed in the database; no cut-off is given here.

One data set relates to PC-12. The data set is described as follows: Neuroprotective activity against MPP+-induced cell injury in […] cells assessed as cell survival rate at 20 uM (reference value: 68.60 +/- 1.06 %). The data set is classed as functional. The conditions noted are these: Rattus norvegicus, read-out: Survival.
As for `C/C=C/C=C/C(=O)O[C@]12C(=O)OC[C@@]1(C)[C@@]1(O)CC[C@@H](C)[C@]13C[C@H]2OC(=O)[C@@H]3O`, the viability at 20 µM turned out to be 72.5%. For the compound `C/C=C/C=C/C(=O)O[C@@H]1C[C@@H](C)[C@@]23C[C@@H](OC(=O)[C@@H]2O)[C@@]2(O)C(=O)OC[C@@]2(C)[C@@]13O`, the viability at 20 µM is 68.5%.

The next data set concerns PC-12. Kind of data set: Neuroprotective activity in […] cells assessed as induction of NGF-mediated neurite outgrowth by measuring protrusion length extension at 10 uM by methylene blue staining based light microscopic analysis. In kind it is functional, cell-based. The settings on record: Rattus norvegicus.
With `C/C=C/C=C/C(=O)O[C@]12C(=O)OC[C@@]1(C)[C@@]1(O)CC[C@@H](C)[C@]13C[C@H]2OC(=O)[C@@H]3O`, the outcome was Active. For `C/C=C/C=C/C(=O)O[C@@H]1C[C@@H](C)[C@@]23C[C@@H](OC(=O)[C@@H]2O)[C@@]2(O)C(=O)OC[C@@]2(C)[C@@]13O`, the result was Active.

On to `C[C@@H]1C[C@@H](OC(=O)CCc2ccc(F)cc2)[C@@]2(O)[C@@]13C[C@@H](OC(=O)[C@@H]3O)[C@@]1(O)C(=O)OC[C@@]21C`, for which the outcome was Active.

The test system of a further data set is PC-12. The data set is described as follows: Neuroprotective activity in […] cells assessed as induction of NGF-mediated neurite outgrowth by measuring differentiation rate of neurite-beating cells at 10 uM incubated for 72 hrs (reference value: 4.27 +/- 0.04 %). The data set is classed as functional, Rattus norvegicus.
Settings: not given
In the case of `C[C@@H]1C[C@@H](OC(=O)CCc2cccc(Br)c2)[C@@]2(O)[C@@]13C[C@@H](OC(=O)[C@@H]3O)[C@@]1(O)C(=O)OC[C@@]21C`, the Activity stood at 5.56%. As to `C[C@@H]1C[C@@H](OC(=O)CCc2cccc(F)c2)[C@@]2(O)[C@@]13C[C@@H](OC(=O)[C@@H]3O)[C@@]1(OC(=O)CCc3cccc(F)c3)C(=O)OC[C@@]21C`, the Activity came out at 4.93%. On the same count and under the same terms, to `C/C=C/C=C/C(=O)O[C@]12C(=O)OC[C@@]1(C)[C@@]1(O)CC[C@@H](C)[C@]13C[C@H]2OC(=O)[C@@H]3O` belongs 11.02%; to `C[C@@H]1CC[C@@]2(O)[C@@]13C[C@@H](OC(=O)[C@@H]3O)[C@@]1(OC(=O)CCCBr)C(=O)OC[C@@]21C`, 6.04%; to `C[C@@H]1C[C@@H](OC(=O)CCc2ccc(Cl)cc2)[C@@]2(O)[C@@]13C[C@@H](OC(=O)[C@@H]3O)[C@@]1(OC(=O)CCc3ccc(Cl)cc3)C(=O)OC[C@@]21C`, 5.21%.

`C[C@@H]1C[C@@H](OC(=O)CCC(=O)c2ccccc2)[C@@]2(O)[C@@]13C[C@@H](OC(=O)[C@@H]3O)[C@@]1(O)C(=O)OC[C@@]21C`: the Activity is reported as 6.42%. For the compound `C[C@@H]1CC[C@@]2(O)[C@@]13C[C@@H](OC(=O)[C@@H]3O)[C@@]1(OC(=O)Cc3ccc4ccccc4c3)C(=O)OC[C@@]21C`, the Activity was 5.55%.

Regarding `C[C@@H]1CC[C@@]2(O)[C@@]13C[C@@H](OC(=O)[C@@H]3O)[C@@]1(OC(=O)Cc3cccc(Cl)c3)C(=O)OC[C@@]21C`, the Activity was found to be 5.53%. Take `C[C@@H]1CC[C@@]2(O)[C@@]13C[C@@H](OC(=O)[C@@H]3O)[C@@]1(O)C(=O)OC[C@@]21C`: the Activity is given as 8.76%. As for `C/C=C/C=C/C(=O)O[C@@H]1C[C@@H](C)[C@@]23C[C@@H](OC(=O)[C@@H]2O)[C@@]2(OC(=O)/C=C/C=C/C)C(=O)OC[C@@]2(C)[C@@]13O`, the Activity came out at 5.13%. In the case of `C[C@@H]1CC[C@@]2(O)[C@@]13C[C@@H](OC(=O)[C@@H]3O)[C@@]1(OC(=O)CCc3cccc(Br)c3)C(=O)OC[C@@]21C`, the Activity stood at 5.04%. The same measure, in the same setting: to `C[C@@H]1CC[C@@]2(O)[C@@]13C[C@@H](OC(=O)[C@@H]3O)[C@@]1(OC(=O)CCc3cccc(F)c3)C(=O)OC[C@@]21C` belongs 5.7%; to `C[C@@H]1C[C@@H](OC(=O)CCc2cccc(Cl)c2)[C@@]2(O)[C@@]13C[C@@H](OC(=O)[C@@H]3O)[C@@]1(O)C(=O)OC[C@@]21C`, 4.69%; to `C[C@@H]1C[C@@H](OC(=O)CCc2cccc(F)c2)[C@@]2(O)[C@@]13C[C@@H](OC(=O)[C@@H]3O)[C@@]1(O)C(=O)OC[C@@]21C`, 5.78%. Take `C[C@@H]1C[C@@H](OC(=O)CCc2ccccc2)[C@@]2(O)[C@@]13C[C@@H](OC(=O)[C@@H]3O)[C@@]1(OC(=O)CCc3ccccc3)C(=O)OC[C@@]21C`: the Activity was 5.47%. As to `C[C@@H]1C[C@@H](OC(=O)CCc2cccc(Br)c2)[C@@]2(O)[C@@]13C[C@@H](OC(=O)[C@@H]3O)[C@@]1(OC(=O)CCc3cccc(Br)c3)C(=O)OC[C@@]21C`, the Activity amounted to 5.1%. As for `C[C@@H]1CC[C@@]2(O)[C@@]13C[C@@H](OC(=O)[C@@H]3O)[C@@]1(OC(=O)/C=C/c3ccccc3)C(=O)OC[C@@]21C`, the Activity is given as 5.38%. Same read-out and setting: under `C[C@@H]1CC[C@@]2(O)[C@@]13C[C@@H](OC(=O)[C@@H]3O)[C@@]1(OC(=O)Cc3cccc(Br)c3)C(=O)OC[C@@]21C` stands 6.91%; under `C/C=C/C=C/C(=O)O[C@@H]1C[C@@H](C)[C@@]23C[C@@H](OC(=O)[C@@H]2O)[C@@]2(O)C(=O)OC[C@@]2(C)[C@@]13O`, 11.83%.

On to `COc1ccc(CC(=O)O[C@]23C(=O)OC[C@@]2(C)[C@@]2(O)CC[C@@H](C)[C@]24C[C@H]3OC(=O)[C@@H]4O)cc1`, for which the Activity was determined as 5.27%. On to `C[C@@H]1CC[C@@]2(O)[C@@]13C[C@@H](OC(=O)[C@@H]3O)[C@@]1(OC(=O)CCc3ccccc3)C(=O)OC[C@@]21C`, for which the Activity is 10.04%. Still for that read-out and setting: to `C[C@@H]1CC[C@@]2(O)[C@@]13C[C@@H](OC(=O)[C@@H]3O)[C@@]1(OC(=O)Cc3ccc(F)cc3)C(=O)OC[C@@]21C` belongs 5.85%; to `C[C@@H]1C[C@@H](OC(=O)CCc2ccccc2)[C@@]2(O)[C@@]13C[C@@H](OC(=O)[C@@H]3O)[C@@]1(O)C(=O)OC[C@@]21C`, 9.67%. Still for that read-out and setting: under `C[C@@H]1CC[C@@]2(O)[C@@]13C[C@@H](OC(=O)[C@@H]3O)[C@@]1(OC(=O)CCCCBr)C(=O)OC[C@@]21C` stands 5.28%; under `C[C@@H]1C[C@@H](OC(=O)CCc2ccc(Cl)cc2)[C@@]2(O)[C@@]13C[C@@H](OC(=O)[C@@H]3O)[C@@]1(O)C(=O)OC[C@@]21C`, 5.03%. Turning to `C[C@@H]1CC[C@@]2(O)[C@@]13C[C@@H](OC(=O)[C@@H]3O)[C@@]1(OC(=O)CCc3ccc(F)cc3)C(=O)OC[C@@]21C`, the Activity turned out to be 8.99%. On to `C[C@@H]1CC[C@@]2(O)[C@@]13C[C@@H](OC(=O)[C@@H]3O)[C@@]1(OC(=O)CCc3ccc(Cl)cc3)C(=O)OC[C@@]21C`, for which the Activity is 6.05%.

Consider `C[C@@H]1C[C@@H](OC(=O)CCC(=O)c2ccccc2)[C@@]2(O)[C@@]13C[C@@H](OC(=O)[C@@H]3O)[C@@]1(OC(=O)CCC(=O)c3ccccc3)C(=O)OC[C@@]21C`, for which the Activity is recorded as 5.25%. Still for that read-out and setting: under `C[C@@H]1CC[C@@]2(O)[C@@]13C[C@@H](OC(=O)[C@@H]3O)[C@@]1(OC(=O)CCC(=O)c3ccccc3)C(=O)OC[C@@]21C` stands 8.79%. Still for that read-out and setting: to `C[C@@H]1CC[C@@]2(O)[C@@]13C[C@@H](OC(=O)[C@@H]3O)[C@@]1(OC(=O)Cc3ccc(Cl)cc3)C(=O)OC[C@@]21C` belongs 5.52%; to `C[C@@H]1C[C@@H](OC(=O)CCc2ccc(F)cc2)[C@@]2(O)[C@@]13C[C@@H](OC(=O)[C@@H]3O)[C@@]1(O)C(=O)OC[C@@]21C`, 10.96%; to `C[C@@H]1C[C@@H](OC(=O)CCc2ccc(Br)cc2)[C@@]2(O)[C@@]13C[C@@H](OC(=O)[C@@H]3O)[C@@]1(O)C(=O)OC[C@@]21C`, 10.02%. Regarding `C[C@@H]1CC[C@@]2(O)[C@@]13C[C@@H](OC(=O)[C@@H]3O)[C@@]1(OC(=O)CCc3ccc(Br)cc3)C(=O)OC[C@@]21C`, the Activity came out at 6.85%. Turning to `C[C@@H]1C[C@@H](OC(=O)CCc2cccc(Cl)c2)[C@@]2(O)[C@@]13C[C@@H](OC(=O)[C@@H]3O)[C@@]1(OC(=O)CCc3cccc(Cl)c3)C(=O)OC[C@@]21C`, the Activity turned out to be 4.54%.

In the case of `COc1cc(CC(=O)O[C@]23C(=O)OC[C@@]2(C)[C@@]2(O)CC[C@@H](C)[C@]24C[C@H]3OC(=O)[C@@H]4O)cc(OC)c1OC`, the Activity turned out to be 6.06%. Still for that read-out and setting: under `C[C@@H]1CC[C@@]2(O)[C@@]13C[C@@H](OC(=O)[C@@H]3O)[C@@]1(OC(=O)CCc3cccc(Cl)c3)C(=O)OC[C@@]21C` stands 4.88%; under `C[C@@H]1CC[C@@]2(O)[C@@]13C[C@@H](OC(=O)[C@@H]3O)[C@@]1(OC(=O)Cc3cccc(F)c3)C(=O)OC[C@@]21C`, 5.9%; under `C[C@@H]1C[C@@H](O)[C@@]2(O)[C@@]13C[C@@H](OC(=O)[C@@H]3O)[C@@]1(O)C(=O)OC[C@@]21C`, 6.25%. On the same count and under the same terms, under `C[C@@H]1C[C@@H](OC(=O)CCc2ccc(Br)cc2)[C@@]2(O)[C@@]13C[C@@H](OC(=O)[C@@H]3O)[C@@]1(OC(=O)CCc3ccc(Br)cc3)C(=O)OC[C@@]21C` stands 8.73%; under `C[C@@H]1CC[C@@]2(O)[C@@]13C[C@@H](OC(=O)[C@@H]3O)[C@@]1(OC(=O)Cc3ccc(Br)cc3)C(=O)OC[C@@]21C`, 4.9%. Same read-out and setting: to `C[C@@H]1C[C@@H](OC(=O)CCc2ccc(F)cc2)[C@@]2(O)[C@@]13C[C@@H](OC(=O)[C@@H]3O)[C@@]1(OC(=O)CCc3ccc(F)cc3)C(=O)OC[C@@]21C` belongs 9.41%.

Tested on in another data set: not listed separately
The data set is described as follows: Cytotoxicity against […] cells assessed as inhibition of cell growth by CCK-8 assay. The data set is classed as toxicity, cell-based. The conditions noted are these: rat.
With `C/C=C/C=C/C(=O)O[C@]12C(=O)OC[C@@]1(C)[C@@]1(O)CC[C@@H](C)[C@]13C[C@H]2OC(=O)[C@@H]3O`, the half-maximal inhibitory concentration (IC50) (commonly the point on the concentration scale where inhibition reaches its midpoint) was over 512 µg/mL. On the same count and under the same terms, to `C/C=C/C=C/C(=O)O[C@@H]1C[C@@H](C)[C@@]23C[C@@H](OC(=O)[C@@H]2O)[C@@]2(O)C(=O)OC[C@@]2(C)[C@@]13O` belongs over 512 µg/mL.
